Tests used:
NIM1 gene = assay: RNA gel blot of NIM1 (gene region 2) mRNA after chemical treatment; details: wild-type Ws plants (FIG. 7)
From the text: To ascertain which gene region contained the NIM1 gene, gel blots containing RNA isolated from leaf tissue of Ws-0 and the different nim1 mutants following either water or chemical treatment were probed with DNA derived from each of the four gene regions. In these experiments, care was taken to label probes to high specific activity and autoradiographs were exposed for more than 1 week.
Identical Northern blots were made from RNA samples isolated from water-, SA-, BTH- and INA-treated Ws and nim1 lines as previously described in Delaney, et al. (1995). These blots were hybridized with PCR products generated from the four gene regions identified in the 9.9 kb NIM1 gene region (SEQ ID NO:1).
The same RNA samples produced in the induction studies (FIG. 3) were also probed with the NIM1 gene using a full4ength cDNA clone as a probe.

PR-1, PR-2 and PR-5 = assay: Northern analysis of SAR gene expression after chemical treatment
Method: Plants were then treated with H2O, 5 mM SA, 300 FM BTH, or 300 FM INA. Chemicals were applied as a fine mist to completely cover the seedlings using a chromister. Water control plants were returned to the growing phytotron while the chemically treated plants were held in a separate but identical phytotron. At 3 days post-chemical application, water and chemically treated plants were inoculated with the compatible Emwa isolate. Noco inoculation was conducted on water treated plants only. Following inoculation, plants were covered with a clear plastic dome to maintain high humidity required for successful P. parasitica infection and placed in a growing chamber with 19° C. day/17° C. night temperatures and 8 h light/16 h dark cycles. RNA was extracted from plants 3 days after either water or chemical treatment, or 14 days after inoculation with the compatible P. parasitica Emwa isolate. The RNA was size-fractionated by agarose gel electrophoresis and transferred to GeneScreenPlus membranes (DuPont).
In FIG. 1, replicate blots were hybridized to Arabidopsis gene probes PR-1, PR-2 and PR-5 as described in Uknes et al. (1992).

[1] = tested on: Peronospora parasitica isolate Emwa; assay: Infection severity rating after inoculation with Peronospora parasitica (Emwa) following chemical pretreatment
Method: (§1) Wild-type seeds and seeds for each of the nim1 alleles (nim1-1,-2,-3,-4,-5,-6) were sown onto MetroMix 300 growing media, covered with a transparent plastic dome, and placed at 4° C. in the dark for 3 days. After 3 days of 4° C. treatment, the plants were moved to a phytotron for 2 weeks. By approximately 2 weeks post-planting, germinated seedlings had produced 4 true leaves. Plants were then treated with H2O, 5 mM SA, 300 μM BTH, or 300 μM INA. Chemicals were applied as a fine mist to completely cover the seedlings using a chromnister. Water control plants were returned to the growing phytotron while the chemically treated plants were held in a separate but identical phytotron. At 3 days post-chemical application, water and chemically treated plants were inoculated with the compatible ‘Emwa’ isolate. ‘Noco’ inoculation was conducted on water treated plants only. Following inoculation, plants were covered with a clear plastic dome to maintain high humidity required for successful P. parasitica infection and placed in a growing chamber with 19° C. day/17° C. night temperatures and 8 h light/16 h dark cycles.
WsWT indicates the Ws wild type parent line in which the nim1 alleles were found. The various nim1 alleles are indicated in the table and the NahG plant is indicated also.
NahG plants therefore serve as a kind of universal susceptibility control.

[2] = tested on: Peronospora parasitica isolate Emwa; assay: Percent of plants showing P. parasitica Emwa surface conidia after chemical pretreatment; details: for Percent Infection - Emwa: P. parasitica inoculated 3 days after chemical treatment
Method: Mutant plants were treated with SA, INA, and BTH and then assayed for resistance to Peronospora parasitica.P. parasitica isolate ‘Emwa’ is a Pp. isolate that is compatible in the Ws ecotype.
as §1
To determine the relative strength of the different nim1 alleles, each mutant was microscopically analyzed at various timepoints after inoculation for the growth of P. parasitica under normal growth conditions and following pretreatment with either SA, INA, or BTH. Under magnification, sporulation of the fungus could be observed at very early stages of disease development. The percentage of plants/pot showing sporulation at 5d, 6d, 7d, 1 id and 14d after inoculation was determined and the density of sporulation was also recorded.
P. parasitica was inoculated onto the plants three days after water or chemical treatment.

How did the “NIM1 (gene region 2) mRNA” value (NIM1 gene) turn out when `CSC(=O)c1cccc2nnsc12` [BTH] was run?
Its value is “induced”.

What about the “SAR and SAR gene expression (PR-1, PR-2, PR-5)” value (PR-1, PR-2 and PR-5; nim1 plants, RNA gel blots FIGS. 1-3) of the same compound?
Its value is “induce neither SAR nor SAR gene expression”.

What about the “PR-1 mRNA accumulation” value (PR-1, PR-2 and PR-5; wild-type plants, RNA 3 days after chemical treatment (FIG. 3)) of the same compound?
The value was “accumulates to high levels”.

What about the “response of plants to the inducer (disease resistance)” value ([1]; NahG plants) of the same compound?
Its value is “very good response”.

And the “Infection Severity - Emwa” value ([1]; NahG plants, Day 7 after inoculation)?
The value was 0.

What about the “Infection Severity - Emwa” value ([1]; NahG plants, Day 11 after inoculation) of the same compound?
The value was 0.

And the “Infection Severity - Emwa” value ([1]; Ws Wt plants, Day 7 after inoculation)?
Its value is 0.

And the “Infection Severity - Emwa” value ([1]; Ws Wt plants, Day 11 after inoculation)?
The value was 0.

What about the “induced resistance to Emwa” value ([1]; Ws plants) of the same compound?
Its value is “very good resistance”.

And the “Infection Severity - Emwa” value ([1]; nim1-1 plants, Day 7 after inoculation)?
The value was 2.5.

And the “Infection Severity - Emwa” value ([1]; nim1-1 plants, Day 11 after inoculation)?
The value was 4.

What about the “Infection Severity - Emwa” value ([1]; nim1-2 plants, Day 7 after inoculation) of the same compound?
Its value is 3.5.

And the “Infection Severity - Emwa” value ([1]; nim1-2 plants, Day 11 after inoculation)?
The value was 4.

What about the “Infection Severity - Emwa” value ([1]; nim1-3 plants, Day 7 after inoculation) of the same compound?
The value was 3.

What about the “Infection Severity - Emwa” value ([1]; nim1-3 plants, Day 11 after inoculation) of the same compound?
The value was 3.5.

And the “Infection Severity - Emwa” value ([1]; nim1-4 plants, Day 7 after inoculation)?
The value was 4.

And the “Infection Severity - Emwa” value ([1]; nim1-4 plants, Day 11 after inoculation)?
Its value is 5.

And the “Infection Severity - Emwa” value ([1]; nim1-5 plants, Day 7 after inoculation)?
The value was 1.5.

What about the “Infection Severity - Emwa” value ([1]; nim1-5 plants, Day 11 after inoculation) of the same compound?
Its value is 2.

And the “Infection Severity - Emwa” value ([1]; nim1-6 plants, Day 7 after inoculation)?
Its value is 3.

What about the “Infection Severity - Emwa” value ([1]; nim1-6 plants, Day 11 after inoculation) of the same compound?
Its value is 4.

And the “Percent Infection - Emwa” value ([2]; Ws WT plants, Day 0)?
The value was 0%.

What about the “Percent Infection - Emwa” value ([2]; Ws WT plants, Day 5) of the same compound?
Its value is 0%.

What about the “Percent Infection - Emwa” value ([2]; Ws WT plants, Day 6) of the same compound?
Its value is 0%.

What about the “Percent Infection - Emwa” value ([2]; Ws WT plants, Day 7) of the same compound?
Its value is 0%.

What about the “Percent Infection - Emwa” value ([2]; Ws WT plants, Day 11) of the same compound?
The value was 0%.

And the “Percent Infection - Emwa” value ([2]; nim1-1 plants, Day 0)?
Its value is 0%.

And the “Percent Infection - Emwa” value ([2]; nim1-1 plants, Day 5)?
Its value is 1%.

And the “Percent Infection - Emwa” value ([2]; nim1-1 plants, Day 6)?
Its value is 5%.

What about the “Percent Infection - Emwa” value ([2]; nim1-1 plants, Day 7) of the same compound?
The value was 30%.

And the “Percent Infection - Emwa” value ([2]; nim1-1 plants, Day 11)?
The value was 100%.

And the “Percent Infection - Emwa” value ([2]; nim1-2 plants, Day 0)?
Its value is 0%.

And the “Percent Infection - Emwa” value ([2]; nim1-2 plants, Day 5)?
The value was 0%.

What about the “Percent Infection - Emwa” value ([2]; nim1-2 plants, Day 6) of the same compound?
Its value is 25%.

What about the “Percent Infection - Emwa” value ([2]; nim1-2 plants, Day 7) of the same compound?
The value was 90%.

And the “Percent Infection - Emwa” value ([2]; nim1-2 plants, Day 11)?
Its value is 100%.

What about the “Percent Infection - Emwa” value ([2]; nim1-3 plants, Day 0) of the same compound?
Its value is 0%.

And the “Percent Infection - Emwa” value ([2]; nim1-3 plants, Day 5)?
Its value is 15%.

And the “Percent Infection - Emwa” value ([2]; nim1-3 plants, Day 6)?
Its value is 70%.

What about the “Percent Infection - Emwa” value ([2]; nim1-3 plants, Day 7) of the same compound?
Its value is 100%.

And the “Percent Infection - Emwa” value ([2]; nim1-3 plants, Day 11)?
The value was 100%.

What about the “Percent Infection - Emwa” value ([2]; nim1-4 plants, Day 0) of the same compound?
Its value is 0%.

And the “Percent Infection - Emwa” value ([2]; nim1-4 plants, Day 5)?
The value was 80%.

What about the “Percent Infection - Emwa” value ([2]; nim1-4 plants, Day 6) of the same compound?
Its value is 100%.

And the “Percent Infection - Emwa” value ([2]; nim1-4 plants, Day 7)?
The value was 100%.

And the “Percent Infection - Emwa” value ([2]; nim1-4 plants, Day 11)?
Its value is 100%.

And the “Percent Infection - Emwa” value ([2]; nim1-5 plants, Day 0)?
Its value is 0%.

What about the “Percent Infection - Emwa” value ([2]; nim1-5 plants, Day 5) of the same compound?
Its value is 0%.

And the “Percent Infection - Emwa” value ([2]; nim1-5 plants, Day 6)?
The value was 1%.

And the “Percent Infection - Emwa” value ([2]; nim1-5 plants, Day 7)?
Its value is 1%.

And the “Percent Infection - Emwa” value ([2]; nim1-5 plants, Day 11)?
The value was 10%.

And the “Percent Infection - Emwa” value ([2]; nim1-6 plants, Day 0)?
Its value is 0%.

What about the “Percent Infection - Emwa” value ([2]; nim1-6 plants, Day 5) of the same compound?
Its value is 1%.

What about the “Percent Infection - Emwa” value ([2]; nim1-6 plants, Day 6) of the same compound?
The value was 90%.

What about the “Percent Infection - Emwa” value ([2]; nim1-6 plants, Day 7) of the same compound?
Its value is 100%.

What about the “Percent Infection - Emwa” value ([2]; nim1-6 plants, Day 11) of the same compound?
Its value is 100%.

What about the “activity in nim1 plants” value ([2]; nim1 plants) of the same compound?
The value was “inactive”.

— US20020152499A1, “Gene encoding a protein involved in the signal transduction cascade leading to systemic acquired resistance in plants” (priority 1996, published 2002)
